# Source: PubChem BioAssay AID1963863 (Molecular Pharmacology Branch, DTP, NCI, 2024)
# Tested on: 931267-113-T-J1-PDC KRAS spheroid with HUVEC/MSC, viability
# Test: Anticancer human tumor 931267-113-T-J1-PDC patient-derived colon adenocarcinoma cell line growth inhibition [KRAS2]
# Details: for IC50: curve of first compound; for viability, T/C: stronger effect = lower value
# How it was run: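 Combination screen of spheroid viability in tumor-cell co-cultures with endothelial (HUVEC) and mesenchymal stem cell stroma. Each agent was tested in half-log dilutions, topping at clinical Cmax or at 10 microM without a known Cmax.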
# [1] = second compound 0.1 µM, first compound 0.0316 µM
# [2] = second compound 0.1 µM, first compound 0.1 µM
# [3] = second compound 0.1 µM, first compound 0.316 µM
# [4] = second compound 0.1 µM, first compound 1 µM
# [5] = second compound 0.1 µM, first compound 3.16 µM
# [6] = second compound 0.1 µM, first compound 10 µM
# [7] = second compound 0.316 µM, first compound 0.0316 µM
# [8] = second compound 0.316 µM, first compound 0.1 µM
# [9] = second compound 0.316 µM, first compound 0.316 µM
# [10] = second compound 0.316 µM, first compound 1 µM
# [11] = second compound 0.316 µM, first compound 3.16 µM
# [12] = second compound 0.316 µM, first compound 10 µM
# [13] = second compound 1 µM, first compound 0.0316 µM
# [14] = second compound 1 µM, first compound 0.1 µM
# [15] = second compound 1 µM, first compound 0.316 µM
# [16] = second compound 1 µM, first compound 1 µM
# [17] = second compound 1 µM, first compound 3.16 µM
# [18] = second compound 1 µM, first compound 10 µM
# [19] = second compound 3.16 µM, first compound 0.0316 µM
# [20] = second compound 3.16 µM, first compound 0.1 µM
# [21] = second compound 3.16 µM, first compound 0.316 µM
# [22] = second compound 3.16 µM, first compound 1 µM
# [23] = second compound 3.16 µM, first compound 3.16 µM
# [24] = second compound 3.16 µM, first compound 10 µM
# [25] = second compound 10 µM, first compound 0.0316 µM
# [26] = second compound 10 µM, first compound 0.1 µM
# [27] = second compound 10 µM, first compound 0.316 µM
# [28] = second compound 10 µM, first compound 1 µM
# [29] = second compound 10 µM, first compound 3.16 µM
# [30] = second compound 10 µM, first compound 10 µM
# [31] = second compound 0.1 µM, first compound 0.01 µM
# [32] = second compound 0.316 µM, first compound 0.01 µM
# [33] = second compound 1 µM, first compound 0.01 µM
# [34] = second compound 3.16 µM, first compound 0.01 µM
# [35] = second compound 10 µM, first compound 0.01 µM
# 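Also: compound exposure lasted 7 days before the readout.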
# 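For viability, T/C in this document: 100% = DMSO vehicle control viability.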
SMILES,IC50 (second compound 0.1 µM) [nM],IC50 (second compound 0.316 µM) [nM],IC50 (second compound 1 µM) [nM],IC50 (second compound 3.16 µM) [nM],IC50 (second compound 10 µM) [nM],"viability, T/C [1] [%]","viability, T/C [2] [%]","viability, T/C [3] [%]","viability, T/C [4] [%]","viability, T/C [7] [%]","viability, T/C [8] [%]","viability, T/C [9] [%]","viability, T/C [10] [%]","viability, T/C [13] [%]","viability, T/C [14] [%]","viability, T/C [15] [%]","viability, T/C [16] [%]","viability, T/C [19] [%]","viability, T/C [20] [%]","viability, T/C [21] [%]",also measured
CC(C)NCC(C(=O)N1CCN(c2ncnc3c2C(C)CC3O)CC1)c1ccc(Cl)cc1 (stereo not given) + CNCc1ccccc1-c1csc(C(C)Nc2nc(C)nc3cc(OC)c(OC)cc23)c1,4930,5430,90.5,< 31.6,< 31.6,96.3,90.4,79,68.4,76,70,63.6,54.6,60.7,47.9,38.9,33.4,0.1,0.18,0.09,"viability, T/C [5]: 59.3%; viability, T/C [6]: 38.6%; viability, T/C [11]: 69.1%; viability, T/C [12]: 31.1%; viability, T/C [17]: 21.6%; viability, T/C [18]: 19.2%; viability, T/C [22]: 0.1%; viability, T/C [23]: 0.14%; viability, T/C [24]: 0.16%; viability, T/C [25]: 0.17%; viability, T/C [26]: 0.15%; viability, T/C [27]: 0.15%; viability, T/C [28]: 0.14%; viability, T/C [29]: 0.25%; viability, T/C [30]: 1.22%"
CC1COCCN1c1cc(-c2ccnn2C)c2ccnc(-c3ccn[nH]3)c2n1 (stereo not given) + CNCc1ccccc1-c1csc(C(C)Nc2nc(C)nc3cc(OC)c(OC)cc23)c1,49.6,46.6,27.8,< 10,< 10,64.9,27.4,11.4,17.1,64.9,20.6,14.7,16.9,48.8,19.8,7.5,10.8,0.07,0.05,0.04,"viability, T/C [31]: 87.4%; viability, T/C [5]: 18%; viability, T/C [32]: 80.2%; viability, T/C [11]: 15.3%; viability, T/C [33]: 58.3%; viability, T/C [17]: 6.12%; viability, T/C [34]: 0.07%; viability, T/C [22]: 0.05%; viability, T/C [23]: 0.14%; viability, T/C [35]: 0.16%; viability, T/C [25]: 0.09%; viability, T/C [26]: 0.1%; viability, T/C [27]: 0.1%; viability, T/C [28]: 0.11%; viability, T/C [29]: 1.06%"
CC1OCC2(CCN(c3cnc(Sc4ccnc(N)c4Cl)c(N)n3)CC2)C1N (stereo not given) + CNCc1ccccc1-c1csc(C(C)Nc2nc(C)nc3cc(OC)c(OC)cc23)c1,> 10000,> 10000,31.6,< 31.6,< 31.6,96.8,70.7,66.5,68.3,88.6,89.3,72,63.2,51.3,44.8,54.2,33.1,0.09,0.09,0.08,"viability, T/C [5]: 61.1%; viability, T/C [6]: 59.8%; viability, T/C [11]: 78.8%; viability, T/C [12]: 81.8%; viability, T/C [17]: 33.2%; viability, T/C [18]: 27.5%; viability, T/C [22]: 0.08%; viability, T/C [23]: 0.08%; viability, T/C [24]: 0.17%; viability, T/C [25]: 0.12%; viability, T/C [26]: 0.19%; viability, T/C [27]: 0.13%; viability, T/C [28]: 0.13%; viability, T/C [29]: 0.12%; viability, T/C [30]: 0.17%"
CCN1CCN(Cc2ccc(Nc3ncc(F)c(-c4cc(F)c5nc(C)n(C(C)C)c5c4)n3)nc2)CC1 + CNCc1ccccc1-c1csc(C(C)Nc2nc(C)nc3cc(OC)c(OC)cc23)c1,149,70.1,6.73,< 3.16,< 3.16,56.5,56.6,43.2,28.6,46.4,49,38.5,3.67,28.7,32.2,1.49,0.15,0.08,0.09,0.05,"viability, T/C (second compound 0.1 µM, first compound 0.00316 µM): 76.8%; viability, T/C [31]: 82.9%; viability, T/C (second compound 0.316 µM, first compound 0.00316 µM): 75.2%; viability, T/C [32]: 60.7%; viability, T/C (second compound 1 µM, first compound 0.00316 µM): 60.1%; viability, T/C [33]: 43.3%; viability, T/C (second compound 3.16 µM, first compound 0.00316 µM): 0.13%; viability, T/C [34]: 0.12%; viability, T/C [22]: 0.14%; viability, T/C (second compound 10 µM, first compound 0.00316 µM): 4.51%; viability, T/C [35]: 0.16%; viability, T/C [25]: 0.18%; viability, T/C [26]: 0.15%; viability, T/C [27]: 1.23%; viability, T/C [28]: 0.18%"
CCNC(=O)CC1N=C(c2ccc(Cl)cc2)c2cc(OC)ccc2-n2c(C)nnc21 (stereo not given) + CNCc1ccccc1-c1csc(C(C)Nc2nc(C)nc3cc(OC)c(OC)cc23)c1,775,240,170,< 31.6,< 31.6,96.5,109,63.5,54.9,75.7,75.2,42,45.7,64.4,53,43.6,36.7,0.1,0.1,0.08,"viability, T/C [5]: 46.4%; viability, T/C [6]: 37.3%; viability, T/C [11]: 30.8%; viability, T/C [12]: 30.9%; viability, T/C [17]: 31%; viability, T/C [18]: 18.1%; viability, T/C [22]: 0.08%; viability, T/C [23]: 0.07%; viability, T/C [24]: 0.16%; viability, T/C [25]: 0.15%; viability, T/C [26]: 0.46%; viability, T/C [27]: 0.12%; viability, T/C [28]: 0.12%; viability, T/C [29]: 0.12%; viability, T/C [30]: 0.2%"
Cn1nccc1Nc1nccc(-c2cc3c(s2)C(C)(C)N(CCN2CCOCC2)C3=O)n1 + CNCc1ccccc1-c1csc(C(C)Nc2nc(C)nc3cc(OC)c(OC)cc23)c1,323,433,88.4,< 31.6,< 31.6,73.6,71.3,44.5,34.1,76.4,75.4,60.6,21.4,56.5,51,26.6,11.2,0.1,0.09,0.08,"viability, T/C [5]: 6.18%; viability, T/C [6]: 2.96%; viability, T/C [11]: 4.19%; viability, T/C [12]: 1.79%; viability, T/C [17]: 0.39%; viability, T/C [18]: 0.15%; viability, T/C [22]: 0.11%; viability, T/C [23]: 0.04%; viability, T/C [24]: 0.11%; viability, T/C [25]: 0.11%; viability, T/C [26]: 0.13%; viability, T/C [27]: 0.13%; viability, T/C [28]: 0.11%; viability, T/C [29]: 0.11%; viability, T/C [30]: 0.42%"
CC(=O)OC12COC1CC(O)C1(C)C(=O)C(O)C3=C(C)C(OC(=O)C(O)C(NC(=O)OC(C)(C)C)c4ccccc4)CC(O)(C(OC(=O)c4ccccc4)C21)C3(C)C (stereo not given) + COc1cc2nc(C)nc(NC(C)c3cc(N)cc(C(F)(F)F)c3)c2cc1OC1CCOC1,> 3160,> 3160,> 3160,> 3160,> 3160,77.7,81.3,83.7,92.4,76.3,92,76.7,82.6,105,88.2,88,96.7,107,76.5,83.9,"viability, T/C [31]: 84.9%; viability, T/C [5]: 106%; viability, T/C [32]: 88%; viability, T/C [11]: 72.1%; viability, T/C [33]: 95%; viability, T/C [17]: 56.9%; viability, T/C [34]: 90%; viability, T/C [22]: 83.8%; viability, T/C [23]: 84.9%; viability, T/C [35]: 98%; viability, T/C [25]: 110%; viability, T/C [26]: 96.2%; viability, T/C [27]: 84.3%; viability, T/C [28]: 72.5%; viability, T/C [29]: 92%"
